SMILES strings stand for the structures.

Data on 7 molecules can be found in PMC6467875, “An experimentally validated approach to calculate the blood-brain barrier permeability of small molecules” (Scientific Reports, 2019).

The conditions of data set [1]: source not stated; cited from earlier work.
The nature of data set [2]: Transwell permeability assay with iPSC-derived hBMECs. The format is in vitro ADME. Particulars: human, stem-cell derived hBMECs, obtained as part of this work.
Protocol: To validate results from MD simulations, permeabilities for selected molecules were determined using the transwell assay with human induced pluripotent stem cell (iPSC)-derived hBMECs. […] Briefly, hBMECs were sub-cultured onto polyester 12-well transwell inserts with a 0.4 µm pore size (Corning) coated with 1:1 collagen IV (100 µg mL^−1, Sigma) and fibronectin (50 µg mL^−1, Sigma) at a density of 1 × 10^6 cells mL^−1 and allowed to reach confluence for another two days. Permeability experiments were performed only if the transendothelial electrical resistance (TEER) was in excess of 1500 Ω cm^2. Prior to permeability experiments, cells were washed with transport buffer (0.12 M NaCl, 25 mM NaHCO3, 3 mM KCl, 2 mM MgSO4, 2 mM CaCl2, 0.4 mM K2HPO4, 1 mM 4-(2-hydroxyethyl)-1-piperazineethanesulfonic acid (HEPES), and 0.1% human platelet poor derived serum) and 100 µL of the molecule of interest in transport buffer was introduced into the apical well.
Experimentally, solute permeabilities are determined using a transwell assay from the concentrations in the apical (luminal, CL) and basolateral (abluminal, CA) compartments after time t using:10 P=VA⋅CA/(t⋅S⋅CL), where VA is the volume of the basolateral compartment (see Supporting Material for details).
For data set [3] the following is noted: not told; cited from earlier work.
The test system of the next data set is red blood cells. Details: method as in Brahm et al. 40. Particulars: from rate constants km for transport into red blood cells, Papp = km/2; ref Brahm et al. 40; cited from earlier work.
For a further data set, the system named is MDCKII cells. On the set-up: method as in Summerfield et al. 32. Particulars: transwell, ref Summerfield et al. 32; cited from earlier work.
The conditions of data set [4]: from experiment; ref Atkinson, Berg, 1988; cited from earlier work.
The next data set deals with bovine BMECs. On the set-up: method as in Shah et al. 33. Particulars: transwell, ref Shah et al. 33; cited from earlier work.

Consider `N` [Ammonia], for which, in data set [1], the Dipole moment is 1.47 D.

Broadly, the Papp A→B is the apparent permeability from the apical to the basolateral side of a cell layer. High values mean fast passage, low ones slow passage. The molecule `Cn1c(=O)c2c(ncn2C)n(C)c1=O` [Caffeine] showed an apparent permeability from apical to basolateral (Papp A→B) in data set [2] of 21 ×10⁻⁶ cm/s. In addition, the Dipole moment in data set [1] was 3.65 D.

What is called Papp is the rate of passage across a membrane or cell layer, normalised by area and donor concentration. Regarding `O=C=O` [Carbon -dioxide, Carbon dioxide], the Dipole moment in data set [1] is recorded as 0 D. In addition, the Papp in data set [3] is 1.6 ± 0.4 × 10^−1 cm/s.

For the molecule `CCO` [Ethanol], in data set [1], the Dipole moment was 1.69 D. Moreover, in the data set on red blood cells, the Papp is 2100 ×10⁻⁶ cm/s.

On to `CCC1(C)CC(=O)NC1=O` (stereo not shown) [Ethosuximide], for which, in the data set on MDCKII cells, the Papp was 9.7 ×10⁻⁶ cm/s. The “Log P, octanol-water partition coefficient” value in data set [4] is 0.38.

For the molecule `OCC(O)CO` [Glycerol], the Papp in the data set with bovine BMECs was 9.5 ×10⁻⁶ cm/s. Moreover, in data set [1], the Dipole moment is 2.56 D.

As for `CC(C)O` [Isopropanol], the Dipole moment in data set [1] is 1.58 D. The Papp in the data set on red blood cells was 6500 ×10⁻⁶ cm/s.
